According to PubChem BioAssay AID256 (DTP/NCI, 2004):
Inconclusive results and toxic doses are left out. The calls were made as follows: active = survival T/C of 150% or more; inactive = T/C below 125% in these data.

System: CD2F1 mice, L1210 leukemia ip, survival T/C
Test: NCI In Vivo Anticancer Drug Screen. Data for tumor model L1210 Leukemia (intraperitoneal) in CD2F1 (CDF1) mice
Conditions: endpoint: mean survival time, higher = longer survival
How it was run: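 Implant tumor; dose compound or vehicle; measure endpoint in both groups; report treated divided by control.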

Measured: T/C

CCOC(=O)c1ccc(N(CCO)CCO)cc1
inactive: dose: 75.0 mg/kg/injection, schedule: Q01DX001 (ip), vehicle: other 94 % of control | dose: 150.0 mg/kg/injection, schedule: Q01DX001 (ip), vehicle: other 97 % of control | dose: 300.0 mg/kg/injection, schedule: Q01DX001 (ip), vehicle: other 102 % of control

CCOC(=O)/C(Cc1cc(Cl)nnc1Cl)=N\N
inactive: dose: 12.5 mg/kg/injection, schedule: Q04DX002 (ip), vehicle: saline with Tween-80 113 % of control | dose: 25.0 mg/kg/injection, schedule: Q04DX002 (ip), vehicle: saline with Tween-80 98 % of control | dose: 50.0 mg/kg/injection, schedule: Q04DX002 (ip), vehicle: saline with Tween-80 87 % of control

O=C(O)C1CCC(C(=O)O)CC1 (stereo not given)
inactive: dose: 100.0 mg/kg/injection, schedule: Q01DX009 (ip), vehicle: saline with Tween-80 95 % of control | dose: 200.0 mg/kg/injection, schedule: Q01DX009 (ip), vehicle: saline with Tween-80 91 % of control | dose: 400.0 mg/kg/injection, schedule: Q01DX009 (ip), vehicle: saline with Tween-80 87 % of control

Cc1ccc(-c2cc(O)cc(-c3ccc(C)cc3C)c2O)c(C)c1
inactive: dose: 400.0 mg/kg/injection, schedule: Q01DX001 (ip), vehicle: saline with Tween-80 91 % of control

Nc1ncc(C2OC(CO)C(O)C2O)c(N)n1 (stereo not given)
inactive: dose: 25.0 mg/kg/injection, schedule: Q01DX009 (ip), vehicle: water 91 % of control | dose: 50.0 mg/kg/injection, schedule: Q01DX009 (ip), vehicle: water 100 % of control | dose: 100.0 mg/kg/injection, schedule: Q01DX009 (ip), vehicle: water 95 % of control | dose: 200.0 mg/kg/injection, schedule: Q01DX009 (ip), vehicle: water 88 % of control | dose: 400.0 mg/kg/injection, schedule: Q01DX009 (ip), vehicle: water 91 % of control
